Reference: ChEMBL document CHEMBL4665907, “Breakthrough in Degradation of BCR-ABL Fusion Protein for the Treatment of Cancer” (ACS Med Chem Lett, 2020)
pKd: −log10 of the molar value.

Tests used:
[1] = target: T1, von Hippel-Lindau disease tumor suppressor/Tyrosine-protein kinase ABL1/Breakpoint cluster region protein (Homo sapiens, UniProt P00519+P11274+P40337); assay: Protac binding affinity at VHL/BCR-ABL (unknown origin) assessed as binding to phosphorylated c-ABL kinase domain by Kinomescan assay; type: protein assay
T1 sequence (P00519 whole entry, the tested form may be a part): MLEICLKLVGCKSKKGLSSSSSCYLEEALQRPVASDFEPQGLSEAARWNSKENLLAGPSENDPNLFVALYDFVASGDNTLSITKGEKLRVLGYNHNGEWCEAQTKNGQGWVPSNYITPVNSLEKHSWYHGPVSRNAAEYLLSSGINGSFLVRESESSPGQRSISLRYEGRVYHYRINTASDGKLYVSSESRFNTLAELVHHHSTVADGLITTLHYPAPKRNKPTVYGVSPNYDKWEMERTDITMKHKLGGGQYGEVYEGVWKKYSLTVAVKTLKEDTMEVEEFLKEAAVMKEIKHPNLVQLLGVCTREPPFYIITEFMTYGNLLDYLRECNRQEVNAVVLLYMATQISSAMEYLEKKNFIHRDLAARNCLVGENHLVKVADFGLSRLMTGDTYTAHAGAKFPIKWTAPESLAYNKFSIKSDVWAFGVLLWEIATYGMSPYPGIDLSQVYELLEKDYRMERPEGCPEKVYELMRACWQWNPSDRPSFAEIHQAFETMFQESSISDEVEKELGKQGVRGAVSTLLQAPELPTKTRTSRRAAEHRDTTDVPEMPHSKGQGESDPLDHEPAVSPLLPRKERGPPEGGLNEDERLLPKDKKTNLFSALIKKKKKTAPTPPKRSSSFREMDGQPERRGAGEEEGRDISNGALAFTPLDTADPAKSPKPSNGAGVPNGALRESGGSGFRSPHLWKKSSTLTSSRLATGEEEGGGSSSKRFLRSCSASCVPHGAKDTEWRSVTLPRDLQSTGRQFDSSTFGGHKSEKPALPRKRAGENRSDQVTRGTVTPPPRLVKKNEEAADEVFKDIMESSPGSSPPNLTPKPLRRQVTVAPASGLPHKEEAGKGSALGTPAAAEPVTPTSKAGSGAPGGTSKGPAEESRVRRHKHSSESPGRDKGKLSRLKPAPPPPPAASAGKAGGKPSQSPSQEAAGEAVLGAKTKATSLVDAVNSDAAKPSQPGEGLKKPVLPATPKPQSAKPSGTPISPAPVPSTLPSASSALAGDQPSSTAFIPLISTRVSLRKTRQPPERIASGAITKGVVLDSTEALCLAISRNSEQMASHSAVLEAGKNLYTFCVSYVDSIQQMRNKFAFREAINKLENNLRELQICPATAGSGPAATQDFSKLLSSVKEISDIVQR
T1 sequence (P11274 whole entry, the tested form may be a part): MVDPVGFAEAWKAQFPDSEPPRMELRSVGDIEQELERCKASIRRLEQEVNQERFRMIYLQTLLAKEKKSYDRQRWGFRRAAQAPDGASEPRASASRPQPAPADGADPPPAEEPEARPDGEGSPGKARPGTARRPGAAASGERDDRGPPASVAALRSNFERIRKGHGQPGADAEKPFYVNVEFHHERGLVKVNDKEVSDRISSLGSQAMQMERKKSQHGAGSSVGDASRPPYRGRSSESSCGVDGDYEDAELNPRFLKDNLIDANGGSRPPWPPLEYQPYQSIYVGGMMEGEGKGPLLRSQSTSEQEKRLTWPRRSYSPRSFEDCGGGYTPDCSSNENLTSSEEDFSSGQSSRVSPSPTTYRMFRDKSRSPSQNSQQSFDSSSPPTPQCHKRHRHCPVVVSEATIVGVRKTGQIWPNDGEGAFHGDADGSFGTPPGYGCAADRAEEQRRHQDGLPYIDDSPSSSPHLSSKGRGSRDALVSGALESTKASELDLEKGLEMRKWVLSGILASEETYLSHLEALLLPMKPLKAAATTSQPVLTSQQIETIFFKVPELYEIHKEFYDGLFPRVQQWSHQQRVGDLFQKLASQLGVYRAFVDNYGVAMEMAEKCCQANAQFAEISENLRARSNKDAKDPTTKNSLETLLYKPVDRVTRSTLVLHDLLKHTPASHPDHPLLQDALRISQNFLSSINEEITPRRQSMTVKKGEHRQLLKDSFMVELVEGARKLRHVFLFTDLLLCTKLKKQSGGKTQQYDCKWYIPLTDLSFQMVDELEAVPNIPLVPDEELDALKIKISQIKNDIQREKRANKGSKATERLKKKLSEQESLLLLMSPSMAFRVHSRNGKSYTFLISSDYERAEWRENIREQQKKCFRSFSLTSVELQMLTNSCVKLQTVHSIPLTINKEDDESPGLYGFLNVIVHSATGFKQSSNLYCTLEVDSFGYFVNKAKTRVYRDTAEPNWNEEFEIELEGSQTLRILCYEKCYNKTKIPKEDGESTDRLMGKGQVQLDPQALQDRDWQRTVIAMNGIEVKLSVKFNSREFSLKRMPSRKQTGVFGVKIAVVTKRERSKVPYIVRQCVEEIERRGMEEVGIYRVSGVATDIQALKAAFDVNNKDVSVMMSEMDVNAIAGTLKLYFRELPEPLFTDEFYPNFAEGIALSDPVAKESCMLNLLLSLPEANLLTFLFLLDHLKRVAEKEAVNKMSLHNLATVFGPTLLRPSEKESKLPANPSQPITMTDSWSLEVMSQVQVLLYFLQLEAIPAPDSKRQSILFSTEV
T1 sequence (P40337 whole entry, the tested form may be a part): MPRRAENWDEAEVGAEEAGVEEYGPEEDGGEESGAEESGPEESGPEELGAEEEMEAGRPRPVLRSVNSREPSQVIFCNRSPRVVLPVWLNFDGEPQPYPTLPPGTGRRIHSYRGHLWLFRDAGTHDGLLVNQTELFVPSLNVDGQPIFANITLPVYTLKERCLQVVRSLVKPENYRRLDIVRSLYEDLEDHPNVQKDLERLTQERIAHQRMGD

[2] = target: T1, von Hippel-Lindau disease tumor suppressor/Tyrosine-protein kinase ABL1/Breakpoint cluster region protein; assay: Protac binding affinity at VHL/BCR-ABL (unknown origin) assessed as binding to non phosphorylated c-ABL kinase domain by Kinomescan assay; type: protein assay
[3] = target: T2, Protein cereblon/Tyrosine-protein kinase ABL1/Breakpoint cluster region protein (Homo sapiens, UniProt P00519+P11274+Q96SW2); assay: Protac activity at CRBN/BCR-ABL in human K562 cells assessed as induction of BCR-ABL degradation at 1 uM incubated for 24 hrs by western blot analysis relative to control; type: cell-based
Target sequence in this assay (P00519 whole entry, looked up, the tested form may be a part): as the sequence (P00519 whole entry, the tested form may be a part) above
Target sequence in this assay (P11274 whole entry, looked up, the tested form may be a part): as the sequence (P11274 whole entry, the tested form may be a part) above
Target sequence in this assay (Q96SW2 whole entry, looked up, the tested form may be a part): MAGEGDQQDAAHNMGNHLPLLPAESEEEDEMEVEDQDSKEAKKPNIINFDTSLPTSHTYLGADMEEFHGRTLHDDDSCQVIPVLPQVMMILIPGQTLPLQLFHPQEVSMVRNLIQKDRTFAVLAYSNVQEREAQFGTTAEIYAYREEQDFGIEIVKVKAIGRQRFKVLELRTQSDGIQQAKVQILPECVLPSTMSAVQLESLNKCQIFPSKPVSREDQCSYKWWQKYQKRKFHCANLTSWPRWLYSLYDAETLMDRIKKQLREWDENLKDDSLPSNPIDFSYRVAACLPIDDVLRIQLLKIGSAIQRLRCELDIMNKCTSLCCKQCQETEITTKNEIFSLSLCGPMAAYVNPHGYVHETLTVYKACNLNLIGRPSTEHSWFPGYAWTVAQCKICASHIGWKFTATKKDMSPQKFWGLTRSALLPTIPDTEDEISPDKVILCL

[4] = target: T2, Protein cereblon/Tyrosine-protein kinase ABL1/Breakpoint cluster region protein; assay: Protac binding affinity at CRBN/BCR-ABL (unknown origin) assessed as binding to phosphorylated c-ABL kinase domain by Kinomescan assay; type: protein assay
Target sequence in this assay (P00519 whole entry, the tested form may be a part): as the sequence (P00519 whole entry, the tested form may be a part) above
Target sequence in this assay (P11274 whole entry, the tested form may be a part): as the sequence (P11274 whole entry, the tested form may be a part) above
Target sequence in this assay (Q96SW2 whole entry, the tested form may be a part): as the sequence (Q96SW2 whole entry, looked up, the tested form may be a part) above

[5] = target: T2, Protein cereblon/Tyrosine-protein kinase ABL1/Breakpoint cluster region protein; assay: Protac activity at CRBN/BCR-ABL in human K562 cells assessed as induction of BCR-ABL degradation at 2.5 uM incubated for 24 hrs by western blot analysis relative to control; type: cell-based
Target sequence in this assay (P00519 whole entry, looked up, the tested form may be a part): as the sequence (P00519 whole entry, the tested form may be a part) above
Target sequence in this assay (P11274 whole entry, looked up, the tested form may be a part): as the sequence (P11274 whole entry, the tested form may be a part) above
Target sequence in this assay (Q96SW2 whole entry, looked up, the tested form may be a part): as the sequence (Q96SW2 whole entry, looked up, the tested form may be a part) above

[6] = target: T2, Protein cereblon/Tyrosine-protein kinase ABL1/Breakpoint cluster region protein; assay: Protac binding affinity at CRBN/BCR-ABL (unknown origin) assessed as binding to non phosphorylated c-ABL kinase domain by Kinomescan assay; type: protein assay
Target sequence in this assay (P00519 whole entry, the tested form may be a part): as the sequence (P00519 whole entry, the tested form may be a part) above
Target sequence in this assay (P11274 whole entry, the tested form may be a part): as the sequence (P11274 whole entry, the tested form may be a part) above
Target sequence in this assay (Q96SW2 whole entry, the tested form may be a part): as the sequence (Q96SW2 whole entry, looked up, the tested form may be a part) above

## COc1cc(Nc2c(C#N)cnc3cc(OCCCN4CCN(CCCCCCOCCOCCOCCOCCOCCOCC(=O)N[C@H](C(=O)N5C[C@H](O)C[C@H]5C(=O)NCc5ccc(-c6scnc6C)cc5)C(C)(C)C)CC4)c(OC)cc23)c(Cl)cc1Cl
[1]
  pKd: 9.52
[2]
  pKd: 9.24

## COc1cc(Nc2c(C#N)cnc3cc(OCCCN4CCN(CCCCCCOCCOCC(=O)Nc5cccc6c5C(=O)N(C5CCC(=O)NC5=O)C6=O)CC4)c(OC)cc23)c(Cl)cc1Cl (stereo not drawn)
[3]
  Activity: > 60%
[4]
  pKd: 9.96
[5]
  Activity: > 80%
[6]
  pKd: 9.55

## Cc1nc(Nc2ncc(C(=O)Nc3c(C)cccc3Cl)s2)cc(N2CCN(CCCCCCOCCOCCOCCCCCC(=O)N[C@H](C(=O)N3C[C@H](O)C[C@H]3C(=O)NCc3ccc(-c4scnc4C)cc3)C(C)(C)C)CC2)n1
[1]
  pKd: 9.33
[2]
  pKd: 9.04

## Cc1nc(Nc2ncc(C(=O)Nc3c(C)cccc3Cl)s2)cc(N2CCN(CCCCCCOCCOCCOCCOCCOCCOCC(=O)Nc3cccc4c3C(=O)N(C3CCC(=O)NC3=O)C4=O)CC2)n1 (stereo not drawn)
[3]
  Activity: > 60%
[4]
  pKd: 9.64
[5]
  Activity: > 80%
[6]
  pKd: 9.59

## COc1cc(Nc2c(C#N)cnc3cc(OCCCN4CCN(CCCCCCOCCOCCOCCOCCOCCOCC(=O)Nc5cccc6c5C(=O)N(C5CCC(=O)NC5=O)C6=O)CC4)c(OC)cc23)c(Cl)cc1Cl (stereo not drawn)
[3]
  Activity: > 60%
[4]
  pKd: 9.89
[5]
  Activity: > 80%
[6]
  pKd: 9.42

## Cc1nc(Nc2ncc(C(=O)Nc3c(C)cccc3Cl)s2)cc(N2CCN(CCCCCCOCCOCCOCCOCCOCCOCC(=O)N[C@H](C(=O)N3C[C@H](O)C[C@H]3C(=O)NCc3ccc(-c4scnc4C)cc3)C(C)(C)C)CC2)n1
[1]
  pKd: 10.06
[2]
  pKd: 9.55

## COc1cc(Nc2c(C#N)cnc3cc(OCCCN4CCN(CCCCCCOCCOCC(=O)N[C@H](C(=O)N5C[C@H](O)C[C@H]5C(=O)NCc5ccc(-c6scnc6C)cc5)C(C)(C)C)CC4)c(OC)cc23)c(Cl)cc1Cl
[1]
  pKd: 9.17
[2]
  pKd: 8.89

## Cc1nc(Nc2ncc(C(=O)Nc3c(C)cccc3Cl)s2)cc(N2CCN(CCCCCCOCCOCCOCCCCCC(=O)Nc3cccc4c3C(=O)N(C3CCC(=O)NC3=O)C4=O)CC2)n1 (stereo not drawn)
[3]
  Activity: > 60%
[5]
  Activity: > 80%

## Cc1nc(Nc2ncc(C(=O)Nc3c(C)cccc3Cl)s2)cc(N2CCN(CCCCCCOCCOCC(=O)N[C@H](C(=O)N3C[C@H](O)C[C@H]3C(=O)NCc3ccc(-c4scnc4C)cc3)C(C)(C)C)CC2)n1
[1]
  pKd: 9.68
[2]
  pKd: 9.44

## COc1cc(Nc2c(C#N)cnc3cc(OCCCN4CCN(CCCCCCOCCOCCOCCCCCC(=O)Nc5cccc6c5C(=O)N(C5CCC(=O)NC5=O)C6=O)CC4)c(OC)cc23)c(Cl)cc1Cl (stereo not drawn)
[3]
  Activity: > 60%
[4]
  pKd: 9.26
[5]
  Activity: > 80%
[6]
  pKd: 9.04
